Experimental data from PubChem BioAssay (NCI).
Where “and” joins values, the source holds several entries; their conditions need not be identical. Equal entries are not always repeated.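 Five concentrations, 48 hours, 96-well plates. GI50 marks 50% less growth. Definition used: TGI = concentration required for complete inhibition of growth.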

Experiments:
Assay in all cases: inhibition of tumour cell growth, NCI panel, 48 h
NCI-H460 lung = tested on: NCI-H460 lung
M19-MEL melanoma = tested on: M19-MEL melanoma
ACHN renal = tested on: ACHN renal
HCC-2998 colon = tested on: HCC-2998 colon
CCRF-CEM leukemia = tested on: CCRF-CEM leukemia
786-0 renal = tested on: 786-0 renal
UACC-62 melanoma = tested on: UACC-62 melanoma
LOX IMVI melanoma = tested on: LOX IMVI melanoma
NCI-H522 lung = tested on: NCI-H522 lung
XF 498 CNS = tested on: XF 498 CNS

| Structure (SMILES) | TGI (NCI-H460 lung) [µM] | TGI (M19-MEL melanoma) [µM] | TGI (ACHN renal) [µM] | TGI (HCC-2998 colon) [µM] | TGI (CCRF-CEM leukemia) [µM] | TGI (786-0 renal) [µM] | TGI (UACC-62 melanoma) [µM] | TGI (LOX IMVI melanoma) [µM] | TGI (NCI-H522 lung) [µM] | GI50 (NCI-H460 lung) | GI50 (LOX IMVI melanoma) [µM] | GI50 (M19-MEL melanoma) [µM] | GI50 (ACHN renal) [µM] | GI50 (HCC-2998 colon) [µM] | GI50 (CCRF-CEM leukemia) | GI50 (786-0 renal) [µM] | GI50 (UACC-62 melanoma) [µM] | GI50 (NCI-H522 lung) [µM] | TGI (XF 498 CNS) | GI50 (XF 498 CNS) |
| --- | --- | --- | --- | --- | --- | --- | --- | --- | --- | --- | --- | --- | --- | --- | --- | --- | --- | --- | --- | --- |
| OCc1c[te]c(-c2ccccc2)c1 | > 100 | > 100 | > 100 | > 100 | > 100 | > 100 | > 100 |  |  |  |  |  |  |  |  |  |  |  |  |  |
| Cc1ccc(NC(=O)/C(Cl)=C(/Cl)C(=O)O)cc1 | > 100 | 29.5 | 30.1 | 34.3 | 5.75 | 32.6 | 29.7 | 30.9 | 6.11 |  |  |  |  |  |  |  |  |  |  |  |
| CC(=O)[CH-]C(=O)c1ccccc1.CC(=O)[CH-]C(=O)c1ccccc1.C[C@]12CCC(=O)C=C1CC[C@@H]1C2CC[C@@]2(C)C1CC[C@@H]2[O-].C[C@]12CCC(=O)C=C1CC[C@@H]1C2CC[C@@]2(C)C1CC[C@@H]2[O-].Cl.[Ti+4] (stereo partly specified) | 30.9 | 96.9 | 49.5 | 42.2 | > 100 | 26.3 | 33.8 | 38.8 | 34.8 | 14.8 µM | 16.9 | 23.7 | 17.2 | 21.8 | 23.8 µM | 13.5 | 6.67 | 13.6 |  |  |
| NCCNCc1c2ccccc2c(CNCCN)c2ccccc12 | 27 | 84.4 | > 100 | 23.3 | 86.2 | 53.4 | 53.5 |  | 21.2 |  |  |  |  |  |  |  |  |  |  |  |
| COc1ccc(C(=O)C(c2ccc(OCc3ccccc3)cc2)c2ccc(OCc3ccccc3)cc2)cc1 | > 100 | > 100 | > 100 | > 100 | > 100 | > 100 | > 100 | > 100 | > 100 |  |  |  |  |  |  |  |  |  | > 100 µM |  |
| OCCN1CCN2C=C(C3CCCC4N(CCO)CCN34)CCC21 (stereo unspecified) | > 100 | > 100 | > 100 | > 100 | 36.3 | > 100 | > 93.9 | > 100 | > 70 |  |  |  |  |  |  |  |  |  | > 100 µM |  |
| COc1ccc(C2C(C)C(=O)C(C)C(c3ccc(OC)cc3)N2N=O)cc1 (stereo unspecified) | > 1000 | > 1000 | > 663 | > 1000 | > 1000 | 467 | > 750 | > 1000 | > 750 | > 750 µM | > 750 | > 1000 |  | > 1000 |  |  | > 750 | > 750 | 69.7 µM and 160 µM and > 460 µM | 27 µM and 39.1 µM |
| Cc1cc(C)nc(NS(=O)(=O)c2ccc(Nc3c4ccc(Cl)cc4nc4c(C(=O)NCCN(C)C)cccc34)cc2)n1 | > 100 | > 100 | > 100 | > 100 | > 100 | > 100 | > 100 | > 100 | > 100 |  |  |  |  |  |  |  |  |  | > 100 µM |  |
| O=C(/C(=C\c1ccc(Cl)cc1)c1ccccc1)c1ccccc1 | > 100 |  | > 100 | > 100 | > 100 | > 100 | > 100 | > 100 | > 100 |  |  |  |  |  |  |  |  |  | 95.5 µM |  |
| COc1cc2c(cc1OC)C1Cc3cc(OC)c(OC)cc3C(C2)N1C | > 100 |  | > 100 | > 100 | > 100 | > 100 | > 75 | > 75 | > 100 | 30.3 µM and 78.9 µM |  |  |  |  | 27.4 µM and > 100 µM |  |  |  | > 100 µM |  |
| CC#CC1C2CCCC1(CSc1ccccc1)NC(=O)O2 (stereo unspecified) | > 100 | > 100 | > 100 | > 100 |  | > 100 | > 100 |  | > 100 |  |  |  |  |  |  |  |  |  | > 100 µM |  |
| CC(=O)OC12COC1CC(O)C1(C)C(=O)C(O)C3=C(C)C(O)CC(O)(C(OC(=O)c4ccccc4)C21)C3(C)C (stereo unspecified) | > 100 | > 100 | > 100 | 59.3 | > 100 | > 100 | > 100 | > 100 | 11.2 |  |  |  |  |  |  |  |  |  | > 100 µM |  |
| c1ccc2c(c1)N=C(c1cccc3ccccc13)CC(c1ccc3c(c1)OCO3)S2 (stereo unspecified) | > 100 | > 100 | > 100 | > 100 | > 100 | > 100 | > 100 | > 100 | > 100 |  |  |  |  |  |  |  |  |  | > 100 µM |  |
| CCNC(=O)O/N=C1\CCC2[C@@H]3CC=C4C[C@@H](OC5CCCCO5)CC[C@]4(C)C3CC[C@]12C (stereo partly specified) | 6.21 | 3.6 | 2.81 | 8.51 |  | 6.48 | 3.94 |  |  |  |  |  |  |  |  |  |  |  |  |  |
| C=C(C(=C)P(=S)(c1ccccc1)c1ccccc1)P(=S)(c1ccccc1)c1ccccc1 | > 100 | > 100 | > 100 | > 100 | > 100 | > 100 | > 100 |  | > 100 |  |  |  |  |  |  |  |  |  | > 100 µM |  |
| O=C1CCSC2=C1SCc1sccc12 | > 100 | > 100 |  | > 100 | > 100 | > 100 | > 100 | > 100 | > 100 |  |  |  |  |  |  |  |  |  | > 100 µM |  |
| COc1ccccc1NC(=O)c1nc2ccc([N+](=O)[O-])cc2nc1C | > 100 | > 100 | > 100 | > 100 | > 100 | > 100 | > 100 | > 100 | > 100 |  |  |  |  |  |  |  |  |  | 73.8 µM |  |
| Clc1ccc(-c2c(C3=NCCCN3)nnn2-c2ccccc2)cc1 | > 100 | > 100 | > 100 | > 100 | > 100 | > 100 | > 100 | 55.7 | > 100 |  |  |  |  |  |  |  |  |  | > 100 µM |  |
| CC1=CC(N2C(=O)C(C)=CC2O)NC1=O (stereo unspecified) | > 100 | > 100 |  | > 100 |  | > 100 |  | > 100 | > 100 |  |  |  |  |  |  |  |  |  |  |  |
| COC(=O)C1=C(C(=O)OC)C2(C)Nc3ccccc3C2=C(c2ccccc2)C1 (stereo unspecified) | 42.9 | 46 | 62.3 | 64.2 | 47.4 | 81.4 | 38.5 | 55.7 | 35.9 |  |  |  |  |  |  |  |  |  | 27 µM |  |
| CC(=O)NC1C(OCc2ccccc2)OC(COC(=O)CCCCCCCCCCNc2ccc([N+](=O)[O-])c3[nH]c4ccccc4c(=O)c23)C(O)C1OC(C)C(=O)NC(C)C(=O)NC(CCC(N)=O)C(=O)OCc1ccccc1 (stereo unspecified) | > 100 | > 100 | > 100 | > 100 |  | > 100 | > 100 | > 100 | > 100 |  |  |  |  |  |  |  |  |  | > 100 µM |  |
| CN1CCN(C)C12C=CC=CC21CC1 | > 100 | > 100 | > 100 | > 100 | > 100 | > 100 | > 100 | > 100 | > 100 |  |  |  |  |  |  |  |  |  | > 100 µM |  |
| CC1OC(OC2C(OC3CCC4(C)C(CCC5(C)C4CC=C4C6CC(C)(C)CCC6(C(=O)O)CCC45C)C3(C)CO)OCC(O)C2O)C(O)C(O)C1O (stereo unspecified) | 43 |  | 37.5 | 30.8 | 18.3 | > 100 | 26.1 | 53.5 | 28.8 |  |  |  |  |  |  |  |  |  |  |  |
| c1ccc2cc(C[n+]3ccn(CCCCCCCCCCn4cc[n+](Cc5ccc6ccccc6c5)c4)c3)ccc2c1 | 10.1 |  | 80.3 | 5.13 | 2.97 | 32.6 | 3.08 | 3.66 | 1.94 | 0.376 µM | 1.21 |  | 6.17 | 1.37 | 1.22 µM | 5.33 | 0.646 | 0.436 |  |  |
| O=C(COC(=O)c1cccc2c(=O)c3ccccc3[nH]c12)Nc1ccc(C(=O)O)cc1 | > 100 | > 100 | > 100 | > 100 | > 100 | > 100 | > 100 | > 10 | > 100 |  |  |  |  |  |  |  |  |  | 95.6 µM |  |
| CC(=O)OC1CC2C3CCC4C[C@@H](NC(=O)C=C(C)C)CC[C@]4(C)C3CC[C@]2(C)[C@H]1C(C)N(C)C (stereo partly specified) | 2.65 |  | 7.36 | 3.57 | 8.15 | 3.17 | 4.45 | 2.53 | 11.4 | 0.885 µM | 1.07 |  | 2.73 | 1.75 | 1.81 µM | 1.65 | 2.16 | 2.78 |  |  |
